Assay results: patent US9113629B2, “4-amino-6-(4-substituted-phenyl)-picolinates and 6-amino-2-(4-substituted-phenyl)-pyrimidine-4-carboxylates and their use as herbicides” (DOW AGROSCIENCES LLC, priority 2013, dated 2015)

Test system: Key Grass and Sedge Weeds as well as Grass Crops
Experiment: Post-emergent Test II herbicidal activity (Table 6)
Format: in vivo
Conditions: Triticum aestivum, post-emergence, 336 h, TRZSS (wheat), application rate 70 g ai/ha, read-out: Visual Growth Reduction (%) 14 Days After Application, TRZSS
Summary of the method: (§1)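 Foliar application at 187 L/ha to greenhouse-grown seedlings (first or second true leaf); subirrigation thereafter. Visual 0–100% injury at 14 d relative to untreated plants.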

Compound | pest or weed control at 70 g/ha [%]
COC(=O)c1nc(-c2cc(F)c(I)cc2F)nc(N)c1OC [Compound 101] | 30 to 44

Same assay, conditions: Triticum aestivum, post-emergence, 336 h, TRZSS (wheat), application rate 140 g ai/ha, read-out: Visual Growth Reduction (%) 14 Days After Application, TRZSS

Compound | pest or weed control at 140 g/ha [%]
COC(=O)c1nc(-c2cc(F)c(I)cc2F)nc(N)c1OC [Compound 101] | 30 to 44

Same assay, conditions: post-emergence, 336 h, CYPES: yellow nutsedge (Cyperus esculentus), application rate 70 g ai/ha, read-out: Visual Growth Reduction (%) 14 Days After Application, CYPES

Compound | pest or weed control at 70 g/ha [%]
COC(=O)c1nc(-c2cc(F)c(I)cc2F)nc(N)c1OC [Compound 101] | 45 to 59

Same assay, conditions: post-emergence, 336 h, CYPES: yellow nutsedge (Cyperus esculentus), application rate 140 g ai/ha, read-out: Visual Growth Reduction (%) 14 Days After Application, CYPES

Compound | pest or weed control at 140 g/ha [%]
COC(=O)c1nc(-c2cc(F)c(I)cc2F)nc(N)c1OC [Compound 101] | 45 to 59

Same assay, conditions: post-emergence, 336 h, DIGSA: crabgrass (Digitaria sanguinalis), application rate 70 g ai/ha, read-out: Visual Growth Reduction (%) 14 Days After Application, DIGSA

Compound | pest or weed control at 70 g/ha [%]
COC(=O)c1nc(-c2cc(F)c(I)cc2F)nc(N)c1OC [Compound 101] | 45 to 59

Same assay, conditions: post-emergence, 336 h, DIGSA: crabgrass (Digitaria sanguinalis), application rate 140 g ai/ha, read-out: Visual Growth Reduction (%) 14 Days After Application, DIGSA

Compound | pest or weed control at 140 g/ha [%]
COC(=O)c1nc(-c2cc(F)c(I)cc2F)nc(N)c1OC [Compound 101] | 60 to 74

Same assay, conditions: post-emergence, 336 h, ECHCG: barnyardgrass (Echinochloa crus-galli), application rate 70 g ai/ha, read-out: Visual Growth Reduction (%) 14 Days After Application, ECHCG

Compound | pest or weed control at 70 g/ha [%]
COC(=O)c1nc(-c2cc(F)c(I)cc2F)nc(N)c1OC [Compound 101] | 0 to 29

Same assay, conditions: post-emergence, 336 h, ECHCG: barnyardgrass (Echinochloa crus-galli), application rate 140 g ai/ha, read-out: Visual Growth Reduction (%) 14 Days After Application, ECHCG

Compound | pest or weed control at 140 g/ha [%]
COC(=O)c1nc(-c2cc(F)c(I)cc2F)nc(N)c1OC [Compound 101] | 85 to 94

Same assay, conditions: post-emergence, 336 h, ORYSA: rice (Oryza sativa), application rate 70 g ai/ha, read-out: Visual Growth Reduction (%) 14 Days After Application, ORYSA

Compound | pest or weed control at 70 g/ha [%]
COC(=O)c1nc(-c2cc(F)c(I)cc2F)nc(N)c1OC [Compound 101] | 0 to 29

Same assay, conditions: post-emergence, 336 h, ORYSA: rice (Oryza sativa), application rate 140 g ai/ha, read-out: Visual Growth Reduction (%) 14 Days After Application, ORYSA

Compound | pest or weed control at 140 g/ha [%]
COC(=O)c1nc(-c2cc(F)c(I)cc2F)nc(N)c1OC [Compound 101] | 0 to 29

Same assay, conditions: post-emergence, 336 h, SETFA: giant foxtail (Setaria faberi), application rate 70 g ai/ha, read-out: Visual Growth Reduction (%) 14 Days After Application, SETFA

Compound | pest or weed control at 70 g/ha [%]
COC(=O)c1nc(-c2cc(F)c(I)cc2F)nc(N)c1OC [Compound 101] | 0 to 29

Same assay, conditions: post-emergence, 336 h, SETFA: giant foxtail (Setaria faberi), application rate 140 g ai/ha, read-out: Visual Growth Reduction (%) 14 Days After Application, SETFA

Compound | pest or weed control at 140 g/ha [%]
COC(=O)c1nc(-c2cc(F)c(I)cc2F)nc(N)c1OC [Compound 101] | 60 to 74

Same assay, conditions: post-emergence, 336 h, SORVU: grain sorghum (Sorghum vulgare), application rate 70 g ai/ha, read-out: Visual Growth Reduction (%) 14 Days After Application, SORVU

Compound | pest or weed control at 70 g/ha [%]
COC(=O)c1nc(-c2cc(F)c(I)cc2F)nc(N)c1OC [Compound 101] | 30 to 44

Same assay, conditions: post-emergence, 336 h, SORVU: grain sorghum (Sorghum vulgare), application rate 140 g ai/ha, read-out: Visual Growth Reduction (%) 14 Days After Application, SORVU

Compound | pest or weed control at 140 g/ha [%]
COC(=O)c1nc(-c2cc(F)c(I)cc2F)nc(N)c1OC [Compound 101] | 45 to 59

Same assay, conditions: post-emergence, 336 h, ZEAMX: maize, corn (Zea mays), application rate 70 g ai/ha, read-out: Visual Growth Reduction (%) 14 Days After Application, ZEAMX

Compound | pest or weed control at 70 g/ha [%]
COC(=O)c1nc(-c2cc(F)c(I)cc2F)nc(N)c1OC [Compound 101] | 60 to 74

Same assay, conditions: post-emergence, 336 h, ZEAMX: maize, corn (Zea mays), application rate 140 g ai/ha, read-out: Visual Growth Reduction (%) 14 Days After Application, ZEAMX

Compound | pest or weed control at 140 g/ha [%]
COC(=O)c1nc(-c2cc(F)c(I)cc2F)nc(N)c1OC [Compound 101] | 60 to 74

Test system: not given
Experiment: not given
Conditions: not given

melting point [°C] | Compound
193 to 194 | COC(=O)c1nc(-c2cc(F)c(I)cc2F)nc(N)c1OC [Compound 101]

Test system: Key Broadleaf Weed and Crop Species
Experiment: Post-emergent Test II herbicidal activity (Table 5)
Format: in vivo
Conditions: post-emergence, 336 h; ABUTH: velvetleaf (Abutilon theophrasti); 70 g ai/ha; post-emergent; 14 days after application; read-out: Visual Growth Reduction (%) 14 Days After Application ABUTH
Summary of the method: as §1

Compound | pest or weed control at 70 g/ha [%]
COC(=O)c1nc(-c2cc(F)c(I)cc2F)nc(N)c1OC [Compound 101] | 85 to 94

Same assay, conditions: post-emergence, 336 h; ABUTH: velvetleaf (Abutilon theophrasti); 140 g ai/ha; post-emergent; 14 days after application; read-out: Visual Growth Reduction (%) 14 Days After Application ABUTH

Compound | pest or weed control at 140 g/ha [%]
COC(=O)c1nc(-c2cc(F)c(I)cc2F)nc(N)c1OC [Compound 101] | 85 to 94

Same assay, conditions: post-emergence, 336 h; AMARE: redroot pigweed (Amaranthus retroflexus); 70 g ai/ha; post-emergent; 14 days after application; read-out: Visual Growth Reduction (%) 14 Days After Application AMARE

Compound | pest or weed control at 70 g/ha [%]
COC(=O)c1nc(-c2cc(F)c(I)cc2F)nc(N)c1OC [Compound 101] | 85 to 94

Same assay, conditions: post-emergence, 336 h; AMARE: redroot pigweed (Amaranthus retroflexus); 140 g ai/ha; post-emergent; 14 days after application; read-out: Visual Growth Reduction (%) 14 Days After Application AMARE

Compound | pest or weed control at 140 g/ha [%]
COC(=O)c1nc(-c2cc(F)c(I)cc2F)nc(N)c1OC [Compound 101] | 85 to 94

Same assay, conditions: post-emergence, 336 h; BRSNN: oilseed-rape, canola (Brassica napus); 70 g ai/ha; post-emergent; 14 days after application; read-out: Visual Growth Reduction (%) 14 Days After Application BRSNN

Compound | pest or weed control at 70 g/ha [%]
COC(=O)c1nc(-c2cc(F)c(I)cc2F)nc(N)c1OC [Compound 101] | 95 to 100

Same assay, conditions: post-emergence, 336 h; BRSNN: oilseed-rape, canola (Brassica napus); 140 g ai/ha; post-emergent; 14 days after application; read-out: Visual Growth Reduction (%) 14 Days After Application BRSNN

Compound | pest or weed control at 140 g/ha [%]
COC(=O)c1nc(-c2cc(F)c(I)cc2F)nc(N)c1OC [Compound 101] | 95 to 100

Same assay, conditions: post-emergence, 336 h; CHEAL: lambsquarters (Chenopodium album); 70 g ai/ha; post-emergent; 14 days after application; read-out: Visual Growth Reduction (%) 14 Days After Application CHEAL

Compound | pest or weed control at 70 g/ha [%]
COC(=O)c1nc(-c2cc(F)c(I)cc2F)nc(N)c1OC [Compound 101] | 85 to 94

Same assay, conditions: post-emergence, 336 h; CHEAL: lambsquarters (Chenopodium album); 140 g ai/ha; post-emergent; 14 days after application; read-out: Visual Growth Reduction (%) 14 Days After Application CHEAL

Compound | pest or weed control at 140 g/ha [%]
COC(=O)c1nc(-c2cc(F)c(I)cc2F)nc(N)c1OC [Compound 101] | 85 to 94

Same assay, conditions: post-emergence, 336 h; EPHHL: wild poinsettia (Euphorbia heterophylla); 70 g ai/ha; post-emergent; 14 days after application; read-out: Visual Growth Reduction (%) 14 Days After Application EPHHL

Compound | pest or weed control at 70 g/ha [%]
COC(=O)c1nc(-c2cc(F)c(I)cc2F)nc(N)c1OC [Compound 101] | 95 to 100

Same assay, conditions: post-emergence, 336 h; EPHHL: wild poinsettia (Euphorbia heterophylla); 140 g ai/ha; post-emergent; 14 days after application; read-out: Visual Growth Reduction (%) 14 Days After Application EPHHL

Compound | pest or weed control at 140 g/ha [%]
COC(=O)c1nc(-c2cc(F)c(I)cc2F)nc(N)c1OC [Compound 101] | 95 to 100

Same assay, conditions: post-emergence, 336 h; HELAN: sunflower (Helianthus annuus); 70 g ai/ha; post-emergent; 14 days after application; read-out: Visual Growth Reduction (%) 14 Days After Application HELAN

Compound | pest or weed control at 70 g/ha [%]
COC(=O)c1nc(-c2cc(F)c(I)cc2F)nc(N)c1OC [Compound 101] | 85 to 94

Same assay, conditions: post-emergence, 336 h; HELAN: sunflower (Helianthus annuus); 140 g ai/ha; post-emergent; 14 days after application; read-out: Visual Growth Reduction (%) 14 Days After Application HELAN

Compound | pest or weed control at 140 g/ha [%]
COC(=O)c1nc(-c2cc(F)c(I)cc2F)nc(N)c1OC [Compound 101] | 85 to 94

Same assay, conditions: post-emergence, 336 h; VIOTR: wild pansy (Viola tricolor); 70 g ai/ha; post-emergent; 14 days after application; read-out: Visual Growth Reduction (%) 14 Days After Application VIOTR

Compound | pest or weed control at 70 g/ha [%]
COC(=O)c1nc(-c2cc(F)c(I)cc2F)nc(N)c1OC [Compound 101] | 0 to 29

Same assay, conditions: post-emergence, 336 h; VIOTR: wild pansy (Viola tricolor); 140 g ai/ha; post-emergent; 14 days after application; read-out: Visual Growth Reduction (%) 14 Days After Application VIOTR

Compound | pest or weed control at 140 g/ha [%]
COC(=O)c1nc(-c2cc(F)c(I)cc2F)nc(N)c1OC [Compound 101] | 0 to 29
